Values of other authors in PubChem BioAssay AID1259409 (Chemical Carcinogenesis Research Information System (CCRIS), 2018).

Test system: rodent chemically induced tumor inhibition, incidence and multiplicity
Experiment: CCRIS tumor inhibitor studies

In the case of CC[C@H](C)C(=O)O[C@H]1C[C@@H](C)C=C2C=C[C@H](C)[C@H](CC[C@@H]3C[C@@H](O)CC(=O)O3)[C@H]21, the “tumour outcome (control, treated, inhibition, significance)” value (Carcinogen: 4-(N-METHYL-N-NITROSAMINO)-1-(3-PYRIDYL)-1-BUTANONE, 64091-91-4, Dose [Inhibitor]: 0, 40 PPM IN THE DIET FOR 6 MO BEGINNING 1 WK POST CARCINOGEN DOSE (STUDY DURATION: 6 MO), Route [Inhibitor]: ORAL, Species: MOUSE, Strain/Sex: STRAIN-A/MALE, Target Tissue: Type of Lesion: LUNG: TUMOR, Dose [Carcinogen]: 10 UMOL ONCE, Promoter: NONE USED) is given as 15/15 (100%), 15/15 (100%), 0%, not significant, the “tumour outcome (control, treated, inhibition, significance)” value (Carcinogen: 4-(N-METHYL-N-NITROSAMINO)-1-(3-PYRIDYL)-1-BUTANONE, 64091-91-4, Dose [Inhibitor]: 0, 160 PPM IN THE DIET FOR 6 MO BEGINNING 1 WK POST CARCINOGEN DOSE (STUDY DURATION: 6 MO), Route [Inhibitor]: ORAL, Species: MOUSE, Strain/Sex: STRAIN-A/MALE, Target Tissue: Type of Lesion: LUNG: TUMOR, Dose [Carcinogen]: 10 UMOL ONCE, Promoter: NONE USED) is given as 15/15 (100%), 15/15 (100%), 0%, not significant and the “tumour outcome (control, treated, inhibition, significance)” value (Carcinogen: 4-(N-METHYL-N-NITROSAMINO)-1-(3-PYRIDYL)-1-BUTANONE, 64091-91-4, Dose [Inhibitor]: 0, 400 PPM IN THE DIET FOR 6 MO BEGINNING 1 WK POST CARCINOGEN DOSE (STUDY DURATION: 6 MO), Route [Inhibitor]: ORAL, Species: MOUSE, Strain/Sex: STRAIN-A/MALE, Target Tissue: Type of Lesion: LUNG: TUMOR, Dose [Carcinogen]: 10 UMOL ONCE, Promoter: NONE USED) is given as 15/15 (100%), 12/14 (86%), 14%, not significant.
In the case of NCCOc1c(Cl)cc(Cl)cc1-c1ccccc1, the “tumour outcome (control, treated, inhibition, significance)” value (Carcinogen: ETHYL CARBAMATE, 51-79-6, Dose [Inhibitor]: 0, 0.04 MG/G PER DOSE IN 0.01 ML OF 0.9% SALINE ADMINISTERED IN 4 DOSES AT 3 HR INTERVALS BEGINNING 30 MIN PRIOR TO CARC, Route [Inhibitor]: INTRAPERITONEAL, Species: MOUSE, Strain/Sex: B6C3F1/MALE, Target Tissue: Type of Lesion: LIVER: HEPATOMA, Dose [Carcinogen]: 0.125 MG/G ONCE, Promoter: NONE USED) is given as 21/21 (100%), 23/25 (92%), 8%, not calculated, the “tumour outcome (control, treated, inhibition, significance)” value (Carcinogen: ETHYL CARBAMATE, 51-79-6, Dose [Inhibitor]: 0, 0.04 MG/G PER DOSE IN 0.01 ML OF 0.9% SALINE ADMINISTERED IN 4 DOSES AT 3 HR INTERVALS BEGINNING 30 MIN PRIOR TO CARC, Route [Inhibitor]: INTRAPERITONEAL, Species: MOUSE, Strain/Sex: B6C3F1/MALE, Target Tissue: Type of Lesion: LIVER: HEPATOMA, Dose [Carcinogen]: 0.25 MG/G ONCE, Promoter: NONE USED) is given as 25/25 (100%), 24/24 (100%), 0%, not calculated and the “tumour outcome (control, treated, inhibition, significance)” value (Carcinogen: ETHYL CARBAMATE, 51-79-6, Dose [Inhibitor]: 0, 0.04 MG/G PER DOSE IN 0.01 ML OF 0.9% SALINE ADMINISTERED IN 4 DOSES AT 3 HR INTERVALS BEGINNING 30 MIN PRIOR TO CARC, Route [Inhibitor]: INTRAPERITONEAL, Species: MOUSE, Strain/Sex: B6C3F1/MALE, Target Tissue: Type of Lesion: LIVER: HEPATOMA, Dose [Carcinogen]: 0.5 MG/G ONCE, Promoter: NONE USED) is given as 22/22 (100%), 21/22 (95%), 5%, not calculated. The “tumour outcome (control, treated, inhibition, significance)” value (Carcinogen: VINYL CARBAMATE, 15805-73-9, Dose [Inhibitor]: 0, 0.04 MG/G PER DOSE IN 0.01 ML OF 0.9% SALINE ADMINISTERED IN 4 DOSES AT 3 HR INTERVALS BEGINNING 30 MIN PRIOR TO CARC, Route [Inhibitor]: INTRAPERITONEAL, Species: MOUSE, Strain/Sex: B6C3F1/MALE, Target Tissue: Type of Lesion: LIVER: HEPATOMA, Dose [Carcinogen]: 0.003 MG/G ONCE, Promoter: NONE USED) was 21/24 (88%), 25/25 (100%), -14%, not calculated, the “tumour outcome (control, treated, inhibition, significance)” value (Carcinogen: VINYL CARBAMATE, 15805-73-9, Dose [Inhibitor]: 0, 0.04 MG/G PER DOSE IN 0.01 ML OF 0.9% SALINE ADMINISTERED IN 4 DOSES AT 3 HR INTERVALS BEGINNING 30 MIN PRIOR TO CARC, Route [Inhibitor]: INTRAPERITONEAL, Species: MOUSE, Strain/Sex: B6C3F1/MALE, Target Tissue: Type of Lesion: LIVER: HEPATOMA, Dose [Carcinogen]: 0.008 MG/G ONCE, Promoter: NONE USED) was 26/26 (100%), 22/23 (96%), 4%, not calculated and the “tumour outcome (control, treated, inhibition, significance)” value (Carcinogen: VINYL CARBAMATE, 15805-73-9, Dose [Inhibitor]: 0, 0.04 MG/G PER DOSE IN 0.01 ML OF 0.9% SALINE ADMINISTERED IN 4 DOSES AT 3 HR INTERVALS BEGINNING 30 MIN PRIOR TO CARC, Route [Inhibitor]: INTRAPERITONEAL, Species: MOUSE, Strain/Sex: B6C3F1/MALE, Target Tissue: Type of Lesion: LIVER: HEPATOMA, Dose [Carcinogen]: 0.025 MG/G ONCE, Promoter: NONE USED) was 23/23 (100%), 24/25 (96%), 4%, not calculated.
For NCC[Se][Se]CCN, the “tumour outcome (control, treated, inhibition, significance)” value (Carcinogen: 7,12-DIMETHYLBENZ[A]ANTHRACENE, 57-97-6, Dose [Inhibitor]: 0, 0.000025 MOL/KG DIET BEGINNING 2 WK PRIOR TO CARCINOGEN AND CONTINUED FOR STUDY DURATION (STUDY DURATION: 25 WK), Route [Inhibitor]: ORAL, Species: RAT, Strain/Sex: CD-1/FEMALE, Target Tissue: Type of Lesion: MAMMARY GLAND: ADENOCARCINOMA, Dose [Carcinogen]: 10 MG ONCE, Promoter: NONE USED) is listed as 18/25 (72%), 14/25 (56%), 22%, not significant and the “tumour outcome (control, treated, inhibition, significance)” value (Carcinogen: 7,12-DIMETHYLBENZ[A]ANTHRACENE, 57-97-6, Dose [Inhibitor]: 0, 0.00004 MOL/KG DIET BEGINNING 2 WK PRIOR TO CARCINOGEN AND CONTINUED FOR STUDY DURATION (STUDY DURATION: 25 WK), Route [Inhibitor]: ORAL, Species: RAT, Strain/Sex: CD-1/FEMALE, Target Tissue: Type of Lesion: MAMMARY GLAND: ADENOCARCINOMA, Dose [Carcinogen]: 10 MG ONCE, Promoter: NONE USED) is listed as 18/25 (72%), 11/25 (44%), 39%, p<0.05.
In the case of Cc1cc(O)cc(=O)o1, the “tumour outcome (control, treated, inhibition, significance)” value (Carcinogen: BENZO[A]PYRENE, 50-32-8, Dose [Inhibitor]: 0.034 MMOL/G IN DIET FOR 5 WK BEGINNING 1 WK PRIOR TO FIRST CARCINOGEN DOSE AND CONTINUING FOR 3 D POST LAST CARCINOGEN, Route [Inhibitor]: ORAL, Species: MOUSE, Strain/Sex: ICR/FEMALE, Target Tissue: Type of Lesion: FORESTOMACH: TUMOR, Dose [Carcinogen]: 1 MG IN 0.2 ML CORN OIL 2/WK FOR 4 WK STARTING, Promoter: NONE USED) is listed as 94%, 85%, 10%, not significant.
In the case of Nc1nc2ncc(CNc3ccc(C(=O)N[C@@H](CCC(=O)O)C(=O)O)cc3)nc2c(=O)[nH]1, the “tumour outcome (control, treated, inhibition, significance)” value (Carcinogen: HYDRAZINE SULFATE, 10034-93-2, Dose [Inhibitor]: 1.1 MG/D IN DIET STARTING 1 WK PRIOR TO ADMINISTRATION OF CARCINOGEN UNTIL END OF EXPERIMENT (STUDY DURATION: APPROXIMAT, Route [Inhibitor]: ORAL, Species: MOUSE, Strain/Sex: SWISS/MALE, FEMALE, Target Tissue: Type of Lesion: LIVER AND LUNG: COMBINED TUMORS, Dose [Carcinogen]: 1.1 MG/D 5 D/WK UNTIL 12 MO OF AGE, Promoter: NONE USED) is listed as 24/29 (83%), 19/31 (61%), 26%, p<0.1, the “tumour outcome (control, treated, inhibition, significance)” value (Carcinogen: ISONIAZID, 54-85-3, Dose [Inhibitor]: 1.1 MG/D SIMULTANEOUS WITH CARCINOGEN 6 D/WK (STUDY DURATION: LIFETIME), Route [Inhibitor]: INTRAGASTRIC, Species: MOUSE, Strain/Sex: SWISS/MALE, Target Tissue: Type of Lesion: LUNG: TUMOR, Dose [Carcinogen]: 1.1 MG/D SIMULTANEOUS WITH INHIBITOR, Promoter: NONE USED) is listed as 15/29 (52%), 0/16 (0%), 100%, p<0.01 and the “tumour outcome (control, treated, inhibition, significance)” value (Carcinogen: N-methyl-N'-nitro-N-nitrosoguanidine, 70-25-7, Dose [Inhibitor]: 0, 5 mg/kg in water for 50 weeks beginning at 6 weeks of age, Route [Inhibitor]: Oral, Species: Rat, Strain/Sex: Wistar/Male, Target Tissue: Type of Lesion: Stomach: Tumor, Dose [Carcinogen]: 100 mg/L in drinking water for 50 weeks) is listed as 5/11 (45.5%), 0/10 (0%), 100% p<0.05.
